Laboratory results: ChEMBL document CHEMBL4507283, “Data for DCP probe BI-1935” (2021)

Assays:
[1] = biological target: 3-hydroxy-3-methylglutaryl-coenzyme A reductase (Rattus norvegicus) (UniProt P51639); test: HMGCOARED Eurofins-Panlabs selectivity data (BI); settings: Compound concentration 10.0 uM
[2] = biological target: Thromboxane A2 receptor (Homo sapiens) (UniProt P21731); test: PROST_A2TP Eurofins-Panlabs selectivity data (BI); settings: Compound concentration 10.0 uM
[3] = biological target: ALK tyrosine kinase receptor (Homo sapiens) (UniProt Q9UM73); settings: Compound concentration 1000.0 nM
[4] = biological target: Cyclin-dependent kinase 4 (Homo sapiens) (UniProt P11802); settings: Compound concentration 1000.0 nM
[5] = biological target: Megakaryocyte-associated tyrosine-protein kinase (Homo sapiens) (UniProt P42679); settings: Compound concentration 1000.0 nM
[6] = biological target: Mitogen-activated protein kinase kinase kinase 12 (Homo sapiens) (UniProt Q12852); settings: Compound concentration 1000.0 nM
[7] = biological target: Serine/threonine-protein kinase 17A (Homo sapiens) (UniProt Q9UEE5); settings: Compound concentration 1000.0 nM
[8] = biological target: Ephrin type-A receptor 2 (Homo sapiens) (UniProt P29317); settings: Compound concentration 1000.0 nM
[9] = biological target: Mitogen-activated protein kinase 4 (Homo sapiens) (UniProt P31152); settings: Compound concentration 1000.0 nM
[10] = biological target: Tyrosine-protein kinase Fes/Fps (Homo sapiens) (UniProt P07332); settings: Compound concentration 1000.0 nM
[11] = test system: Receptor-type tyrosine-protein kinase FLT3 (Homo sapiens), P36888 [D835V]; settings: Compound concentration 1000.0 nM
[12] = biological target: Glycogen synthase kinase-3 beta (Homo sapiens) (UniProt P49841); settings: Compound concentration 1000.0 nM
[13] = biological target: Mitogen-activated protein kinase 9 (Homo sapiens) (UniProt P45984); settings: Compound concentration 1000.0 nM
[14] = biological target: Serine/threonine-protein kinase MAK (Homo sapiens) (UniProt P20794); settings: Compound concentration 1000.0 nM
[15] = biological target: Serine/threonine-protein kinase 4 (Homo sapiens) (UniProt Q13043); settings: Compound concentration 1000.0 nM
[16] = biological target: Serine/threonine-protein kinase 38-like (Homo sapiens) (UniProt Q9Y2H1); settings: Compound concentration 1000.0 nM
[17] = biological target: Serine/threonine-protein kinase Nek1 (Homo sapiens) (UniProt Q96PY6); settings: Compound concentration 1000.0 nM
[18] = biological target: Serine/threonine-protein kinase Nek3 (Homo sapiens) (UniProt P51956); settings: Compound concentration 1000.0 nM
[19] = biological target: Mitogen-activated protein kinase 12 (Homo sapiens) (UniProt P53778); settings: Compound concentration 1000.0 nM
[20] = biological target: Serine/threonine-protein kinase PAK 6 (Homo sapiens) (UniProt Q9NQU5); settings: Compound concentration 1000.0 nM
[21] = biological target: Phosphorylase b kinase gamma catalytic chain, skeletal muscle/heart isoform (Homo sapiens) (UniProt Q16816); settings: Compound concentration 1000.0 nM
[22] = biological target: Phosphorylase b kinase regulatory subunit alpha, liver isoform (Homo sapiens) (UniProt P46019); settings: Compound concentration 1000.0 nM
[23] = test system: Phosphatidylinositol 4,5-bisphosphate 3-kinase catalytic subunit alpha isoform (Homo sapiens), P42336 [Q546K]; settings: Compound concentration 1000.0 nM
[24] = biological target: Serine/threonine-protein kinase PLK2 (Homo sapiens) (UniProt Q9NYY3); settings: Compound concentration 1000.0 nM
[25] = biological target: Serine/threonine-protein kinase PRP4 homolog (Homo sapiens) (UniProt Q13523); settings: Compound concentration 1000.0 nM
[26] = biological target: Receptor-interacting serine/threonine-protein kinase 1 (Homo sapiens) (UniProt Q13546); settings: Compound concentration 1000.0 nM
[27] = biological target: Serine/threonine-protein kinase SIK2 (Homo sapiens) (UniProt Q9H0K1); settings: Compound concentration 1000.0 nM
[28] = biological target: Proto-oncogene tyrosine-protein kinase Src (Homo sapiens) (UniProt P12931); settings: Compound concentration 1000.0 nM
[29] = biological target: Serine/threonine-protein kinase 33 (Homo sapiens) (UniProt Q9BYT3); settings: Compound concentration 1000.0 nM
[30] = biological target: Tyrosine-protein kinase SYK (Homo sapiens) (UniProt P43405); settings: Compound concentration 1000.0 nM
[31] = biological target: Tyrosine-protein kinase receptor Tie-1 (Homo sapiens) (UniProt P35590); settings: Compound concentration 1000.0 nM
[32] = biological target: Testis-specific serine/threonine-protein kinase 3 (Homo sapiens) (UniProt Q96PN8); settings: Compound concentration 1000.0 nM
[33] = biological target: Serine/threonine-protein kinase ULK3 (Homo sapiens) (UniProt Q6PHR2); settings: Compound concentration 1000.0 nM
[34] = biological target: Serine/threonine-protein kinase VRK2 (Homo sapiens) (UniProt Q86Y07); settings: Compound concentration 1000.0 nM
[35] = biological target: 5-hydroxytryptamine receptor 1A (Homo sapiens) (UniProt P08908); settings: Compound concentration 10.0 uM
[36] = biological target: T1, 5-hydroxytryptamine receptor 3A (Homo sapiens) (UniProt P46098); settings: Compound concentration 10.0 uM
T1 sequence (whole entry): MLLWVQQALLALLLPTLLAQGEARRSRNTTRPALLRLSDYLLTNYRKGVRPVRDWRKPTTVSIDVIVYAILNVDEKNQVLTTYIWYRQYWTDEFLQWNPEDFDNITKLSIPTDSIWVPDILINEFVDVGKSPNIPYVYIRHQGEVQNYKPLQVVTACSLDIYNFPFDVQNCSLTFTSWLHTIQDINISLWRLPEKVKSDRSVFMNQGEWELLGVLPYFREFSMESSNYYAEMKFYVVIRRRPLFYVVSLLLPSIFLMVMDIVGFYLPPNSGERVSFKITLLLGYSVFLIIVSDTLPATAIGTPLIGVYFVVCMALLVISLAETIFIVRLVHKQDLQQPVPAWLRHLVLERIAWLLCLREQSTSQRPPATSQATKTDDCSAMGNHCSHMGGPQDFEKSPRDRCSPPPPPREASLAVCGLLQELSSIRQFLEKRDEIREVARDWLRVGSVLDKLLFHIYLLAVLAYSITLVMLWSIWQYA

[37] = biological target: GABA-A receptor; anion channel (Rattus norvegicus) (UniProt O09028+P15431+P18506+P18508+P19969+P20236+P23574+P23576+P28471+P28473+P30191+P62813+P63079+P63138+Q91ZM7+Q9ES14); settings: Compound concentration 10.0 uM

Sequence of Phosphorylase b kinase regulatory subunit alpha, liver isoform (Homo sapiens) (P46019 whole entry, canonical isoform): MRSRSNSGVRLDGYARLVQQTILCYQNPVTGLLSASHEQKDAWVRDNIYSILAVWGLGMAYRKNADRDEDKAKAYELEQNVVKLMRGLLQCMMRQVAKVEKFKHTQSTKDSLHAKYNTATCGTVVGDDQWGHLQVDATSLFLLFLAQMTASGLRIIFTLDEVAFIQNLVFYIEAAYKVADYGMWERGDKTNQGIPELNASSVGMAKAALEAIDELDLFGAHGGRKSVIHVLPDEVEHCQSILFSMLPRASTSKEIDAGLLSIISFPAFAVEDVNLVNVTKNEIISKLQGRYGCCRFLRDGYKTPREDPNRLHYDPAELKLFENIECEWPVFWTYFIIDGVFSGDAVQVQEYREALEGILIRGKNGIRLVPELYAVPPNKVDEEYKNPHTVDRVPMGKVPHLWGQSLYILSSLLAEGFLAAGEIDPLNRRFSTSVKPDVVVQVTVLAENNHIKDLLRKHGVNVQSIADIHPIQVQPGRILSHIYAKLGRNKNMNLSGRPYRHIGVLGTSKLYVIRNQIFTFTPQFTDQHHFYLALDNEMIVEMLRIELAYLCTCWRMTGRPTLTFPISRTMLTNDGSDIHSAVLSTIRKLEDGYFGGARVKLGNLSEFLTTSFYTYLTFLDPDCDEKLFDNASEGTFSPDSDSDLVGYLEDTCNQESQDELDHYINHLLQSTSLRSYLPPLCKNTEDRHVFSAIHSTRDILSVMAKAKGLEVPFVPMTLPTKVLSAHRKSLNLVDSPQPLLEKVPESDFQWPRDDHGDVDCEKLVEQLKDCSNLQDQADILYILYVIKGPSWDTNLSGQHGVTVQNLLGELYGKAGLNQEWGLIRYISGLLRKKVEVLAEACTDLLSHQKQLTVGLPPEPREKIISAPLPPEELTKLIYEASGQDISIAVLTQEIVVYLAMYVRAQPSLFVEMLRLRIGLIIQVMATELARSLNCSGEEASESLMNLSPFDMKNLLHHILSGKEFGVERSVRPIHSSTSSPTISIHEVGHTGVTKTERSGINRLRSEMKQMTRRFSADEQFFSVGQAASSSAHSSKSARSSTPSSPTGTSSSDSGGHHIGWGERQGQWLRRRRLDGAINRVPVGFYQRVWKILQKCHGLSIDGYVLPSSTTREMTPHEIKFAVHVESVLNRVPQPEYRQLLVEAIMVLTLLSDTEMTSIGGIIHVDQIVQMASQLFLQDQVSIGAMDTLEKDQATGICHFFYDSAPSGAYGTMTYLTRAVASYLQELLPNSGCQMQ
Sequence of Cyclin-dependent kinase 4 (Homo sapiens) (P11802 whole entry): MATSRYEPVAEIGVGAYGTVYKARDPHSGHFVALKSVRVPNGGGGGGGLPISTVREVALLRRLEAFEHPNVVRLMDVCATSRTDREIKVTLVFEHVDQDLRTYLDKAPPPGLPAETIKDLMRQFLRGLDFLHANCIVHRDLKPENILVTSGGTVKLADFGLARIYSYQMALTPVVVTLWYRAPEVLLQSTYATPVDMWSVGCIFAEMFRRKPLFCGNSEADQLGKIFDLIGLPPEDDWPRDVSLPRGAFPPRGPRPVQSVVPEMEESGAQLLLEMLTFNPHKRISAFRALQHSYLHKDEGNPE
Sequence of Proto-oncogene tyrosine-protein kinase Src (Homo sapiens) (P12931 2-536 limits assumed): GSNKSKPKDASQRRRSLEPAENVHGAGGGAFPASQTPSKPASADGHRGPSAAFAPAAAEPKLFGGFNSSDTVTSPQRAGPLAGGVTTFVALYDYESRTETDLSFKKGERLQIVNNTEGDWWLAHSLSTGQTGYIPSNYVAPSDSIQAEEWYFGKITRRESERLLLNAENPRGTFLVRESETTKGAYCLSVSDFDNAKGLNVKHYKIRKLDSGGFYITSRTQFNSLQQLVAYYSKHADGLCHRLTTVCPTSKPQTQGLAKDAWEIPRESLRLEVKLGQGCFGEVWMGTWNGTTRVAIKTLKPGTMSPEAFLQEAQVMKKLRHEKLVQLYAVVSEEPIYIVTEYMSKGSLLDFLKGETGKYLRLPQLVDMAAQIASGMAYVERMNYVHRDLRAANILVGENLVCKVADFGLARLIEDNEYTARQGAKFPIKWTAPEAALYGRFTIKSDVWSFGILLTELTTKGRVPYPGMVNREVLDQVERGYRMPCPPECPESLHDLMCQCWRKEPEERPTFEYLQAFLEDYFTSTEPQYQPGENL
Sequence of Megakaryocyte-associated tyrosine-protein kinase (Homo sapiens) (P42679 whole entry): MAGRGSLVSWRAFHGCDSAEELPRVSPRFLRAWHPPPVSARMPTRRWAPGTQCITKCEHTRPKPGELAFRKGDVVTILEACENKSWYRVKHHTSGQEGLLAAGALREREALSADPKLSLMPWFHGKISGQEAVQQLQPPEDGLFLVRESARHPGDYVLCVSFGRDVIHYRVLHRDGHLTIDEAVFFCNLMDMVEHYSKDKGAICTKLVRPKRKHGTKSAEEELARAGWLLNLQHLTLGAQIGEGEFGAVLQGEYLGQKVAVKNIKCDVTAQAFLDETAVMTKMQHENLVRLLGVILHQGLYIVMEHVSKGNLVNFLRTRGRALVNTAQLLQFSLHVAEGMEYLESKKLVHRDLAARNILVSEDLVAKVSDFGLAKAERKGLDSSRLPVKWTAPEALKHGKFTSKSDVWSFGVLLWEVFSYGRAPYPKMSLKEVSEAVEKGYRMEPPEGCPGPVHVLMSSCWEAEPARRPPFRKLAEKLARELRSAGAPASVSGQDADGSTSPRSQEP
Sequence of Mitogen-activated protein kinase 4 (Homo sapiens) (P31152 whole entry): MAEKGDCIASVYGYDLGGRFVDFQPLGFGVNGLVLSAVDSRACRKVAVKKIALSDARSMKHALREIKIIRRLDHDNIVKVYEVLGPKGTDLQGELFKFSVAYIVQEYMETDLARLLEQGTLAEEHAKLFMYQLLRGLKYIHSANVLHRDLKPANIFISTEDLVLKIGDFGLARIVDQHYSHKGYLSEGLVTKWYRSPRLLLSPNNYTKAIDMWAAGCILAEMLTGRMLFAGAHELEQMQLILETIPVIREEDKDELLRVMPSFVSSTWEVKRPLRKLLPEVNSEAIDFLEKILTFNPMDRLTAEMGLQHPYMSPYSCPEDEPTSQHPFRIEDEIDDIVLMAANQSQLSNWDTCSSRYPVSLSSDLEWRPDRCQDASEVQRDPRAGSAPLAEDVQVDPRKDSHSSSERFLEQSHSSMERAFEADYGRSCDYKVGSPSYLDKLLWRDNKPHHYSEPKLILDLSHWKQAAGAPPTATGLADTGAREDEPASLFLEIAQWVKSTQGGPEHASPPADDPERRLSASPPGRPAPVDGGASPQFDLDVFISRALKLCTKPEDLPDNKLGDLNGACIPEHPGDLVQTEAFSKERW
Sequence of Serine/threonine-protein kinase PRP4 homolog (Homo sapiens) (Q13523 whole entry): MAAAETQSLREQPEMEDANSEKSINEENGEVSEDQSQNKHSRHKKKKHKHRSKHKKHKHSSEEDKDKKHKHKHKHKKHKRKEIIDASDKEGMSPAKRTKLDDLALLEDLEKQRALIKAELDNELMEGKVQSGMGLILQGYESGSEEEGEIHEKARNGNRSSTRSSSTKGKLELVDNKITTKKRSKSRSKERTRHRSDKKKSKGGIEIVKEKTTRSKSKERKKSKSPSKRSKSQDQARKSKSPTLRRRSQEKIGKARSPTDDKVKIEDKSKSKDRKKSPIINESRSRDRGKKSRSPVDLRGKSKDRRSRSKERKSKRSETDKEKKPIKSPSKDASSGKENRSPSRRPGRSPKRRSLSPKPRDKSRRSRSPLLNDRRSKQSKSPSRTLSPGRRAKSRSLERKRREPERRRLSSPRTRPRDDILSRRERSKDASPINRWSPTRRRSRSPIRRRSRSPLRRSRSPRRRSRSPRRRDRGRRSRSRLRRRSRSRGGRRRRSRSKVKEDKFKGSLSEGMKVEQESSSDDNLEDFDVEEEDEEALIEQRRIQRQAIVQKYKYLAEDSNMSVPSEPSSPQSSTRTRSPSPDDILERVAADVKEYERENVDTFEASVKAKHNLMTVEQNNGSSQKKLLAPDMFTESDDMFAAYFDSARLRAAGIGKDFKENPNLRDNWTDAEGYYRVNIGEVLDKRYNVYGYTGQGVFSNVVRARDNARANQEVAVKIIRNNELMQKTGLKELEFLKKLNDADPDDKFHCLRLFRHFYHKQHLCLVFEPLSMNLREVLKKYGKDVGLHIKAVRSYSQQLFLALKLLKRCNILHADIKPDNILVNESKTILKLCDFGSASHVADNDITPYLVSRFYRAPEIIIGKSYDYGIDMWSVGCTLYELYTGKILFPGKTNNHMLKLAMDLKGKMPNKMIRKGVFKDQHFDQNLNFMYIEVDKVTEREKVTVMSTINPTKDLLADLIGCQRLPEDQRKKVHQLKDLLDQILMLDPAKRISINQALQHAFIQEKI
Sequence of Serine/threonine-protein kinase ULK3 (Homo sapiens) (Q6PHR2 whole entry): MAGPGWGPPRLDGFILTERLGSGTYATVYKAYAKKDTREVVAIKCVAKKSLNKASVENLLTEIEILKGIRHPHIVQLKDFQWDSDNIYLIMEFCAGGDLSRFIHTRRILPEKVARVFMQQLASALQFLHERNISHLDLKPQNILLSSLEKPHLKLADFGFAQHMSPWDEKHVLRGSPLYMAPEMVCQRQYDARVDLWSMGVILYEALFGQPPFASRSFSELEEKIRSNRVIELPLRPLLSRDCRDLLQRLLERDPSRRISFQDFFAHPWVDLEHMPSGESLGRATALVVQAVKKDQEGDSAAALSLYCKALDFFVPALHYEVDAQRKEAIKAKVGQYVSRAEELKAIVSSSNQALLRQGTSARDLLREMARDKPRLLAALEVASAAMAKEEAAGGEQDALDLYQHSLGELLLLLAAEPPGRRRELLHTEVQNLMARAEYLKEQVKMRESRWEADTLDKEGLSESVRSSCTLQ
Sequence of Testis-specific serine/threonine-protein kinase 3 (Homo sapiens) (Q96PN8 whole entry): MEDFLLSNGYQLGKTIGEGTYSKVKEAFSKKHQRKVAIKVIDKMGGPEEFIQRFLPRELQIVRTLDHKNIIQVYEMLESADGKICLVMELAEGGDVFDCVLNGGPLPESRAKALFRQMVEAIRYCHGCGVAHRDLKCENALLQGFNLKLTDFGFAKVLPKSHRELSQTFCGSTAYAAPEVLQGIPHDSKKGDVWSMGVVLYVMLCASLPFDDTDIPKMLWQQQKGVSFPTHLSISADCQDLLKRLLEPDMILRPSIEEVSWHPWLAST

CCOCCn1cc(C(=O)Nc2ccc(-n3nc(-c4cccnc4)cc3C(F)(F)F)cn2)ccc1=O [BI 1935]
inactive: residual activity [1] 87% | residual activity [2] 98% | residual activity [3] 79% | residual activity [4] 93% | residual activity [5] 90% | residual activity [6] 100% | residual activity [7] 100% | residual activity [8] 93% | residual activity [9] 100% | residual activity [10] 82% | residual activity [11] 100% | residual activity [12] 86% | residual activity [13] 97% | residual activity [14] 89% | residual activity [15] 100% | residual activity [16] 66% | residual activity [17] 100% | residual activity [18] 100% | residual activity [19] 65% | residual activity [20] 100% | residual activity [21] 100% | residual activity [22] 100% | residual activity [23] 95% | residual activity [24] 88% | residual activity [25] 97% | residual activity [26] 88% | residual activity [27] 91% | residual activity [28] 90% | residual activity [29] 94% | residual activity [30] 100% | residual activity [31] 81% | residual activity [32] 100% | residual activity [33] 61% | residual activity [34] 97% | inhibition [35] 13.9% | inhibition [36] 2.27% | inhibition [37] 18.1%
